What was measured:
[1] = glucuronidation in liver microsomes from rats; assay type: in vitro ADME; conditions: rat liver microsomes, UDPGA, 37° C. for 60 min
Description: All liver microsomal and cytosolic fractions were prepared using the following procedure. Thawed livers were homogenized with 2 volumes of 50 mM Tris-buffer (pH 7.5) containing 1.15% KCl. For microsomal and cytosolic preparations, the homogenate was centrifuged for 20 min at 9,000×g and the resulting supernatant was centrifuged for 60 min at 105,000×g. The resulting cytosolic fractions were re-centrifuged at 105,000×g for 60 min. Fractions of cytosol were aliquoted into small tubes and stored at −70° C. Subsequently, the microsomal pellets were washed with 10 mM EDTA containing 1.15% KCl and were centrifuged at 105,000×g for 60 min. […] Protein concentrations were determined by a modified Lowry assay (Smith et al., 1985). The specific cytochrome P450 content in each microsomal preparation was measured as described by Omura and Sato, J. Biol. Chem. 239, 2370-2378 (1964).
The typical reaction mixture (500 μl) containing 10 mM MgCl2, 2% glycerol, 0.02% lubrol PX, 3 mM UDPGA, 1 mg liver microsomes, 50 mM bis-tris propane buffer (pH 8.5) and ˜10 or 25 μM compound (in 15 μl methanol) was incubated at 37° C. for 30-60 min. After incubation, the reactions were terminated by the addition of four volumes of acetonitrile and processed and analyzed by HPLC as mentioned above.

[2] = metabolism in primary cultures of rat hepatocytes; assay type: in vitro ADME; conditions: after 6 hr
Description: Hepatocytes were harvested from male Sprague-Dawley rat livers or human livers and cultured on a matrigel support and treated with 0.1 μM dexamethasone or 50 μM rifampicin, respectively, for 48 hr prior to the addition of the test compounds. A 2.5 mM stock solution of [^14C]2-(R)-(1-(R)-(3,5-bis(trifluoromethyl)-phenyl)ethoxy)-3-(S)-(4-fluoro)phenyl-4-(3-(5-oxo-1H,4H-1,2,4-triazolo)methylmorpholine, [^14C]M-1 or [^14C]M-2 in DMSO was added to the plates such that the final concentration of test compound was 25 μM and DMSO was 1% (v/v). The cultures were incubated for 4, 6 or 24 hr for rat hepatocytes and 48 hr for human hepatocytes. The incubation mixtures (500 μL) contained 10 μM of test compound, 100 mM phosphate buffer pH 7.4, NADPH-regenerating system, microsomes containing expressed CYP isoforms (CYP1A2, CYP2A6, CYP2B6, CYP2C8, CYP2C9, CYP2C19, CYP2D6, CYP2E1 or CYP3A4) and cytochrome P-450 reductase. The reactions were initiated by adding NADP and proceeded at 37° C. for 15-45 min. […]
Method A was conducted on a Shimadzu HPLC system (Shimadzu Scientific Instruments Inc., Columbia Md.). The parent compounds and their metabolites were monitored directly using a radiometric detector (INUS Systems Inc. Tampa, Fla.) and Ultima-Flow M (Packard Instrument Co., Meridan Conn.) as scintillant at a flow rate of 3 mL/min. […]

C[C@@H](O[C@H]1OCCN[C@H]1c1ccc(F)cc1)c1cc(C(F)(F)F)cc(C(F)(F)F)c1 [Metabolite M-1, (2R,3S)-2-[(1R)-1-[3,5-bis(trifluoromethyl)phenyl]ethoxy]-3-(4-fluorophenyl)morpholine]
conversion to the corresponding glucuronide [1]: ~20% | metabolism in rat hepatocyte cultures [2]: extensively metabolized

Source: patent US6727244B2, “Mammalian metabolites of a tachykinin receptor antagonist” (Merck & Co., Inc., priority 2000, dated 2004)
